# From publication PMC3667671 (Clinical pharmacology and therapeutics, 2012)
# “And” between values parts separate entries of the source, which are not always exact repeats. Equal values may be shown once. Read-outs that look alike come from different tables or passages of the source.
# Key:
# [1] = format: in vivo, human
# [2] = biological target: ABCC2 (Homo sapiens, UniProt Q92887); assay: Uptake of estradiol-17β-glucuronide into ABCC2-containing inside-out vesicles; format: biochemical
# [3] = biological target: ABCB1 (Homo sapiens, UniProt P08183); assay: Calcein AM accumulation assay in ABCB1-transfected MDCKII cells; format: cell-based
# Chain of ABCB1 (P08183 whole entry): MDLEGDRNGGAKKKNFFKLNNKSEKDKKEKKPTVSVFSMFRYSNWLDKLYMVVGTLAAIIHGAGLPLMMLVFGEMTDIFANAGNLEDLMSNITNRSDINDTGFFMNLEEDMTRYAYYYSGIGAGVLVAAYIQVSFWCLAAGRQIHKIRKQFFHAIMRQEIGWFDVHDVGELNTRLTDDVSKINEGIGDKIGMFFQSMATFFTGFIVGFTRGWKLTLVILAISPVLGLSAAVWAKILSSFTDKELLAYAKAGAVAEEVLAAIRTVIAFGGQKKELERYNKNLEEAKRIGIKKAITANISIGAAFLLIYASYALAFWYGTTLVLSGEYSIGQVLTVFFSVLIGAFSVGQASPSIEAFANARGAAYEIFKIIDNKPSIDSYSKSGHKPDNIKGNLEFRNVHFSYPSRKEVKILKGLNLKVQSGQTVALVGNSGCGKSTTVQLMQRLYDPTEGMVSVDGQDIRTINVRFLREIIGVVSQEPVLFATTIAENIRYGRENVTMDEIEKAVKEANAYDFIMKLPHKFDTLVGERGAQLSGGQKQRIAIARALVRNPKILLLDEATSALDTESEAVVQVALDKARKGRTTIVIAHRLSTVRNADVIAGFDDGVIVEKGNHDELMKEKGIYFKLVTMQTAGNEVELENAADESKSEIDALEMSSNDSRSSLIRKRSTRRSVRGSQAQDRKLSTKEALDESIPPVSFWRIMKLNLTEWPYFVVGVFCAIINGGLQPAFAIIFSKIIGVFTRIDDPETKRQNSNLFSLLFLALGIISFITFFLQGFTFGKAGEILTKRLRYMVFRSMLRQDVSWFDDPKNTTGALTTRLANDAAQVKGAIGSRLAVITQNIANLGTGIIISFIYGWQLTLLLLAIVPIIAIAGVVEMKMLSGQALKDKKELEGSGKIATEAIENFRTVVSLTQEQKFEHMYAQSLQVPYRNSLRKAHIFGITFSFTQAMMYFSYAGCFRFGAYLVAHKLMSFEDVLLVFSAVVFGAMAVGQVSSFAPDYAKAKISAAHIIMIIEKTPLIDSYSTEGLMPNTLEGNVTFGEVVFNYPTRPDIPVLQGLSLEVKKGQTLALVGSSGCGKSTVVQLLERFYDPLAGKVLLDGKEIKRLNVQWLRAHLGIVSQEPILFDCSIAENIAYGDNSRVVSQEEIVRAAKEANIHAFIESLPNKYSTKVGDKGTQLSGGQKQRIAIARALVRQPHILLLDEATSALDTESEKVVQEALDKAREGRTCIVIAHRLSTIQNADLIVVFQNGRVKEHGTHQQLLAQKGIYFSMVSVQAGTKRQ
# [4] = tested on: serum cholesterol; conditions: human, in vivo; cited from earlier work
# [5] = rapidly absorbed from the upper intestine; cited from earlier work
# [6] = biological target: T1, OATP1B1 (Homo sapiens, UniProt Q9Y6L6); format: cell-based; conditions: OATP1B1-transfected HEK293 cells, efavirenz 1–1,000 μmol/l
# T1 sequence (Q9Y6L6 1-691): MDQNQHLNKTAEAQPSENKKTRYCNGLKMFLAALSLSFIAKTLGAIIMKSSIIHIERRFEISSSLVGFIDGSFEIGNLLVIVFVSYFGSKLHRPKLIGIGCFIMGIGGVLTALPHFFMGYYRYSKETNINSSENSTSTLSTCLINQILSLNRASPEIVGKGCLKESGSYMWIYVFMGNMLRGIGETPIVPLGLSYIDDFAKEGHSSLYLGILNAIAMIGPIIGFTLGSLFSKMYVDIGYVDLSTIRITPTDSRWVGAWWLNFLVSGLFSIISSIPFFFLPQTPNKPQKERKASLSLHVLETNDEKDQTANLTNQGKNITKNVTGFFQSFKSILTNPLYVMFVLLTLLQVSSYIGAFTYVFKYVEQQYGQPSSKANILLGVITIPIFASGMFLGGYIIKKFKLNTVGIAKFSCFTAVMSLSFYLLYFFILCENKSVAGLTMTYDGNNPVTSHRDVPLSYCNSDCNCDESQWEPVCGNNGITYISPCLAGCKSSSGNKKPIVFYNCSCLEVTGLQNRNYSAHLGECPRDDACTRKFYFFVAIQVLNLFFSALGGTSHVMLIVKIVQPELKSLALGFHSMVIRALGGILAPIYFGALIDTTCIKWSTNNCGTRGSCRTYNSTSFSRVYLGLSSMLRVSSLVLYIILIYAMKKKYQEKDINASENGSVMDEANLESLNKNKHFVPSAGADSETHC
# [7] = Estimated luminal concentration of efavirenz after oral administration; parameters: species or system human; conditions: after oral administration of 400 mg, dose/250 mL
# [8] = tested on: serum sterols; assay: Serum sterol concentrations; format: in vivo, human
# [9] = format: in vivo, human; conditions: for AUC(0-t) / Cmax / AUC0–6 h / AUC0–24 h: serum; for AUC(0-t) / Cmax / CLR (renal clearance) / AUC0–6 h / AUC0–24 h: mean ± SD
# [10] = 400 mg efavirenz single dose, second value of the pair (taken as with ezetimibe)
# [11] = chronic administration of 10 mg ezetimibe, 12 healthy subjects
# [12] = ezetimibe + efavirenz multiple dose vs ezetimibe alone
# [13] = ezetimibe + efavirenz single dose vs ezetimibe alone
# [14] = steady state 10 mg ezetimibe + 400 mg efavirenz multiple dose
# [15] = steady state 10 mg ezetimibe + 400 mg efavirenz single dose
# [16] = steady state, 10 mg ezetimibe alone
# Chain of ABCC2 (Q92887 whole entry): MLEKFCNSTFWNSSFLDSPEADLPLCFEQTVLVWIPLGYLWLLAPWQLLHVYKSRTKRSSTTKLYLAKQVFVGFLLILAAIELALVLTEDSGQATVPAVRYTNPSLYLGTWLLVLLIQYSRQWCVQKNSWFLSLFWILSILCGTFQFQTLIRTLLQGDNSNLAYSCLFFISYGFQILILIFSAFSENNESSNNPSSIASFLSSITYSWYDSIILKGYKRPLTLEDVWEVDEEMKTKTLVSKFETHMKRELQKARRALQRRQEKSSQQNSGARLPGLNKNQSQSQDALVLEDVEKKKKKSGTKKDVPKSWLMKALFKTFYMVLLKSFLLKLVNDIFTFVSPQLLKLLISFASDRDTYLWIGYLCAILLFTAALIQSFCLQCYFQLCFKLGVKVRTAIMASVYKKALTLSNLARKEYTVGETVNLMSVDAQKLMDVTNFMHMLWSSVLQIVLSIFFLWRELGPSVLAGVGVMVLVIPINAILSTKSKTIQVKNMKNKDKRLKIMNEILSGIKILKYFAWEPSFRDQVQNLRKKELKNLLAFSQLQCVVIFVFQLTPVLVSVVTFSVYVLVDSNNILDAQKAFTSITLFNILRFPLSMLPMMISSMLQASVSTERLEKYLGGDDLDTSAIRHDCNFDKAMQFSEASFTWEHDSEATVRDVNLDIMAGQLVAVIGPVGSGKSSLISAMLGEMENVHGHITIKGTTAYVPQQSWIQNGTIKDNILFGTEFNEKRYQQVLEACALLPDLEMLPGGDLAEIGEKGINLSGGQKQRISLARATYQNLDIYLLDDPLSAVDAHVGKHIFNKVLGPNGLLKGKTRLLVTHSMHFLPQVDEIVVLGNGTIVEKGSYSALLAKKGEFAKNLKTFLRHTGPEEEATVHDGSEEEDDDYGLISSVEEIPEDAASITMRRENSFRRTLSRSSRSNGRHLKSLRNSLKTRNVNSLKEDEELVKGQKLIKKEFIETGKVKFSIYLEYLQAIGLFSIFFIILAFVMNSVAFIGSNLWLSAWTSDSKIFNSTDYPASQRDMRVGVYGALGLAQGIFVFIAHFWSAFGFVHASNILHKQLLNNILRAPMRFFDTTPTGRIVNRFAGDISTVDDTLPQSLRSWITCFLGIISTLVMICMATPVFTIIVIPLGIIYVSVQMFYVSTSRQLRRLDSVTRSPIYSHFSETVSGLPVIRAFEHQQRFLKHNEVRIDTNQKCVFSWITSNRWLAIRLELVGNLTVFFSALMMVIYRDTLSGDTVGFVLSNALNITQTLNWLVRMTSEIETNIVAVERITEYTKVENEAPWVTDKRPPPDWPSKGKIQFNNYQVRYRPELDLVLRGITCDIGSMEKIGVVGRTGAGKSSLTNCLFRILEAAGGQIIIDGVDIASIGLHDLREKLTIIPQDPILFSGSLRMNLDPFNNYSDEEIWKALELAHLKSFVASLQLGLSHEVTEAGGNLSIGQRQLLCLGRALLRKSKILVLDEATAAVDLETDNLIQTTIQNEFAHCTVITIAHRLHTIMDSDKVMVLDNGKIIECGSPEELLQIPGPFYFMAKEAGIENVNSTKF
compound,measurement,setting,value
"O=C1Nc2ccc(Cl)cc2[C@@](C#CC2CC2)(C(F)(F)F)O1 [Efavirenz, efavirenz]",cumulative renal excretion,"[1]; 400 mg efavirenz single dose, first value of the pair (taken as alone)",83.4 ± 26.9 µg
same,cumulative renal excretion,[1]; [10],88.4 ± 18.8 µg
same,renal clearance,[1]; [10],0.06 ± 0.03 mL/min
same,AUC(0-inf),"[1]; human, serum, oral, 400 mg",27000 ± 12200 ng·h/mL
same,CL renal,"[1]; human, urine and plasma, oral, 400 mg",0.06 ± 0.03 mL/min
same,IC50,[2],60.3 µM
same,concentration inhibiting ABCB1 activity to the same extent as PSC833 (10 μmol/l),[3],316 µM
same,HIV-infected patients with increased serum cholesterol levels,[4],~50%
same,Tmax,[5],2 to 3 h
same,influence on OATP1B1-mediated uptake of bromosulfophthalein,[6],no influence
same,estimated luminal concentration,[7],~ 5 mmol/l and 5 mmol/l
"O=C1[C@H](CC[C@H](O)c2ccc(F)cc2)[C@@H](c2ccc(O)cc2)N1c1ccc(F)cc1 [Ezetimibe, ezetimibe]",lathosterol/cholesterol ratio (marker for endogenous cholesterol synthesis),[8]; after treatment with ezetimibe,significantly increased
same,reduction of serum concentration of campesterol,[8]; [11],~ 40%
same,reduction of serum concentration of sitosterol,[8]; [11],~ 40%
same,reduction of total serum cholesterol,[8]; [11],10–15%
same,AUC0–6 h Ratio (90% CI),[9]; [12],"1.052 (0.880, 1.256)"
same,AUC0–24 h Ratio (90% CI),[9]; [12],"0.975 (0.850, 1.118)"
same,Cmax Ratio (90% CI),[9]; [12],"0.951 (0.730, 1.240)"
same,AUC0–6 h Ratio (90% CI),[9]; [13],"1.346 (1.201, 1.508)"
same,AUC0–24 h Ratio (90% CI),[9]; [13],"1.146 (1.034, 1.270)"
same,Cmax Ratio (90% CI),[9]; [13],"1.194 (1.031, 1.382)"
same,AUC(0-t),"[9]; human, oral, 10 mg, AUC0–6 h, steady state, 10 mg ezetimibe alone",13.6 ± 5.5 ng·h/mL
same,AUC(0-t),"[9]; human, oral, 10 mg, AUC0–24 h, steady state, 10 mg ezetimibe alone, 12 healthy subjects",51.9 ± 21.7 ng·h/mL
same,Cmax,"[9]; human, oral, 10 mg, Cmax, steady state, 10 mg ezetimibe alone",4.82 ± 2.74 ng/mL
same,higher AUC0–6 h,"[9]; with single-dose efavirenz vs ezetimibe alone, P = 0.005",1.4 fold
same,higher maximum plasma concentration (Cmax),"[9]; with single-dose efavirenz vs ezetimibe alone, P = 0.049",1.2 fold
"O=C(O)[C@H]1O[C@@H](Oc2ccc([C@@H]3[C@@H](CC[C@H](O)c4ccc(F)cc4)C(=O)N3c3ccc(F)cc3)cc2)[C@H](O)[C@@H](O)[C@@H]1O [Ezetimibe-glucuronide, ezetimibe-glucuronide]",CLR (renal clearance),[9]; 10 mg ezetimibe + 400 mg efavirenz multiple dose,21.7 ± 5.91 mL/min
same,CLR (renal clearance),[9]; 10 mg ezetimibe + 400 mg efavirenz single dose,23.3 ± 7.61 mL/min
same,CLR (renal clearance),"[9]; 10 mg ezetimibe alone, steady state",24.7 ± 8.77 mL/min
same,decrease of exposure,[9]; acute and chronic comedication with efavirenz,12–30%
same,AUC0–6 h Ratio (90% CI),[9]; [12],"0.691 (0.592, 0.806)"
same,AUC0–24 h Ratio (90% CI),[9]; [12],"0.700 (0.608, 0.806)"
same,Cmax Ratio (90% CI),[9]; [12],"0.606 (0.469, 0.783)"
same,AUC0–6 h Ratio (90% CI),[9]; [13],"0.872 (0.774, 0.982)"
same,AUC0–24 h Ratio (90% CI),[9]; [13],"0.885 (0.809, 0.968)"
same,Cmax Ratio (90% CI),[9]; [13],"0.776 (0.625, 0.963)"
same,reduction of urinary excretion,"[9]; multiple doses of efavirenz, unchanged renal clearance, P = 0.003",35%
same,diminished serum AUC,"[9]; pretreatment with multiple doses of efavirenz, P = 0.005",~30%
same,diminished serum Cmax,"[9]; pretreatment with multiple doses of efavirenz, P = 0.012",about 43%
same,AUC0–6 h,[9]; [14],141 ± 58 ng·h/mL
same,AUC0–24 h,[9]; [14],325 ± 152 ng·h/mL
same,Cmax,[9]; [14],45.3 ± 14.6 ng/mL
same,AUC0–6 h,[9]; [15],182 ± 87 ng·h/mL
same,AUC0–24 h,[9]; [15],411 ± 195 ng·h/mL
same,Cmax,[9]; [15],60.9 ± 29.5 ng/mL
same,AUC0–24 h,"[9]; steady state, 10 mg ezetimibe alone, 12 healthy subjects",466 ± 223 ng·h/mL
same,AUC0–6 h,[9]; [16],205 ± 90 ng·h/mL
same,Cmax,[9]; [16],78.9 ± 43.1 ng/mL
